Data: US10053463B2 (Janssen Pharmaceutica NV, priority 2013, dated 2018)

Legend:
P2X7 [1] = target: T1, P2X7 (Homo sapiens (Human), UniProt Q99572); assay: P2X7 antagonism in human peripheral blood mononuclear cells (PBMCs), IL-1β release; format: cell-based; conditions: Table 3 (additional runs); for remaining activity at 10 µM: P2X7, 10 μM compound, read-out: PBMC 10 μM (% control)
Outline: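 Ficoll-isolated human PBMCs primed with LPS (30 ng/ml) for 1 h, treated with compound for 30 min, then stimulated with 0.5 mM Bz-ATP for 1.5 h. Supernatant IL-1β measured by ELISA as % of LPS+Bz-ATP minus LPS-only release; IC50 from concentration–response of triplicate means.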

P2X7 [2] = target: T1, P2X7; assay: Radioligand binding, human P2X7-1321N1 cell membranes, tracer tritiated A-804598; conditions: Table 3 (additional runs)
Experimental: P2X7 Antagonism in Recombinant Human P2X7 Cells or Recombinant Rat P2X7 Cells: (a) Ca^2+ Flux and (b) Radioligand Binding
(b) Radioligand Binding: human or rat P2X7-1321N1 cells were collected and frozen @−80° C. On the day of the experiment, cell membrane preparations were made according to standard published methods. The total assay volume was 100 μl:10 μl compound (10×)+(b) 40 μl tracer (2.5×)+50 μl membrane (2×). The tracer used for the assay was tritiated A-804598. The compound can be prepared as described in the literature. (Donnelly-Roberts, D. Neuropharmacology 2008, 56 (1), 223-229.) Compounds, tracer and membranes were incubated for 1 hour @ 4° C. The assay was terminated by filtration (GF/B filters pre-soaked with 0.3% PEI) and washed with washing buffer (Tris-HCl 50 mM). The IC50 generated in the binding assay was corrected for tracer concentration and affinity of the tracer to derive at the affinity (K) of the test compounds. […] Data are analyzed and graphed on Graphpad Prism 5. For analysis, each concentration point is averaged from triplicate values and the averaged values are plotted on Graphpad Prism.

T1 sequence (Q99572 whole entry): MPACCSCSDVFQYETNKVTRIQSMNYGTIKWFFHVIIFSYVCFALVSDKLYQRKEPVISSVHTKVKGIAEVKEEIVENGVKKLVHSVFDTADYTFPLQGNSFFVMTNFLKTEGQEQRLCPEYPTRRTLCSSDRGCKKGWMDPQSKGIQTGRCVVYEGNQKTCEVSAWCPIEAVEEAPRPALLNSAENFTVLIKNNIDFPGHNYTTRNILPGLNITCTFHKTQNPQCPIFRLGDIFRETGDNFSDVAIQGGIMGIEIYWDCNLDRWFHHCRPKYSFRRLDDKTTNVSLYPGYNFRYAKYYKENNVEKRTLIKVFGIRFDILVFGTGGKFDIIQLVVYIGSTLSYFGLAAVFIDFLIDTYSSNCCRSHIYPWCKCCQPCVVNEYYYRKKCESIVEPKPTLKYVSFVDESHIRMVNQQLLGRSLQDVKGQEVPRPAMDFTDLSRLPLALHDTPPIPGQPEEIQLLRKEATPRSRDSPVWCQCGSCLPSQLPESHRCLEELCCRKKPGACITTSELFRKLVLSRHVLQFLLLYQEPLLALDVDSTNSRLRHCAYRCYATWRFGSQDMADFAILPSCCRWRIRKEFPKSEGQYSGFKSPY

| SMILES | PBMC 1 μM (% control) (P2X7 [1]; 1 μM compound) | Ki (P2X7 [2]) [nM] | remaining activity at 10 µM (P2X7 [1]) [%] |
| --- | --- | --- | --- |
| FC(F)(F)c1cccc(-c2nnc3n2CCn2c(-c4cnccn4)nnc2-3)c1Cl [Example 132, 3-[2-Chloro-3-(trifluoromethyl)phenyl]-8-pyrazin-2-yl-5,6-dihydrobis[1,2,4]triazolo[4,3-a:3′,4′-c]pyrazine] | 50.7 | 28.2 |  |
| C[C@H]1Cn2c(-c3ccc(Cl)cn3)nnc2-c2nnc(-c3cccc(C(F)(F)F)c3Cl)n21 [Example 120, (S)-3-[2-chloro-3-(trifluoromethyl)phenyl]-5-methyl-8-(5-chloropyridin-2-yl)-5,6-dihydrobis[1,2,4]triazolo[4,3-a:3′,4′-c]pyrazine] |  | 25.1 | 7 |
| Cc1ncsc1-c1nnc2n1C[C@H](C)N(Cc1cccc(C(F)(F)F)c1Cl)C2=O [Example 40, (6S)-7-[2-Chloro-3-(trifluoromethyl)benzyl]-6-methyl-3-(4-methyl-1,3-thiazol-5-yl)-6,7-dihydro[1,2,4]triazolo[4,3-a]pyrazin-8(5H)-one] |  |  | 22.3 |
| C[C@H]1Cn2c(nnc2C2CCOCC2)C(=O)N1Cc1cccc(C(F)(F)F)c1Cl [Example 53, (6S)-7-[2-Chloro-3-(trifluoromethyl)benzyl]-6-methyl-3-(tetrahydro-2H-pyran-4-yl)-6,7-dihydro[1,2,4]triazolo[4,3-a]pyrazin-8(5H)-one] |  |  | 33.2 |
| CCc1nnc2n1C[C@H](C)n1c(-c3cccc(C(F)(F)F)c3Cl)nnc1-2 [Example 116, (S)-3-[2-chloro-3-(trifluoromethyl)phenyl]-8-ethyl-5-methyl-5,6-dihydrobis[1,2,4]triazolo[4,3-a:3′,4′-c]pyrazine] |  |  | 6.2 |
| C[C@H]1Cn2c(nnc2-c2cnco2)C(=O)N1Cc1cccc(C(F)(F)F)c1Cl [Example 22, (6S)-7-[2-Chloro-3-(trifluoromethyl)benzyl]-6-methyl-3-(1,3-oxazol-5-yl)-6,7-dihydro[1,2,4]triazolo[4,3-a]pyrazin-8(5H)-one] |  |  | -3.9 |
| Cc1cc(-c2nnc3n2C[C@H](C)N(Cc2cccc(C(F)(F)F)c2Cl)C3=O)n[nH]1 [Example 26, (6S)-7-[2-Chloro-3-(trifluoromethyl)benzyl]-6-methyl-3-(5-methyl-1H-pyrazol-3-yl)-6,7-dihydro[1,2,4]triazolo[4,3-a]pyrazin-8(5H)-one] |  |  | -3.7 |
| C[C@H]1Cn2c(nnc2-c2cnccn2)C(=O)N1Cc1ccccc1OC(F)(F)F [Example 83, (6S)-6-Methyl-3-pyrazin-2-yl-7-[2-(trifluoromethoxy)benzyl]-6,7-dihydro[1,2,4]triazolo[4,3-a]pyrazin-8(5H)-one] |  |  | 15.6 |
| Cc1nc(C)c(-c2nnc3n2C[C@H](C)N(Cc2cccc(C(F)(F)F)c2Cl)C3=O)s1 [Example 39, (6S)-7-[2-Chloro-3-(trifluoromethyl)benzyl]-3-(2,4-dimethyl-1,3-thiazol-5-yl)-6-methyl-6,7-dihydro[1,2,4]triazolo[4,3-a]pyrazin-8(5H)-one] |  |  | 20.3 |
| C[C@H]1Cn2c(-c3ccc(F)cn3)nnc2-c2nnc(-c3cccc(C(F)(F)F)c3Cl)n21 [Example 102, (5S)-3-[2-Chloro-3-(trifluoromethyl)phenyl]-8-(5-fluoropyridin-2-yl)-5-methyl-5,6-dihydrobis[1,2,4]triazolo[4,3-a:3′,4′-c]pyrazine] |  |  | 1.4 |
| C[C@H]1Cn2c(nnc2-c2cnccn2)C(=O)N1Cc1ccc(Cl)cc1S(C)(=O)=O [Example 82, (6S)-7-[4-Chloro-2-(methylsulfonyl)benzyl]-6-methyl-3-pyrazin-2-yl-6,7-dihydro[1,2,4]triazolo[4,3-a]pyrazin-8(5H)-one] |  |  | 22.2 |
| C[C@H]1Cn2c(nnc2-c2cccc(C(F)(F)F)n2)C(=O)N1Cc1cccc(C(F)(F)F)c1Cl [Example 55, (6S)-7-[2-Chloro-3-(trifluoromethyl)benzyl]-6-methyl-3-[6-(trifluoromethyl)pyridin-2-yl]-6,7-dihydro[1,2,4]triazolo[4,3-a]pyrazin-8(5H)-one] |  |  | 8.5 |
| C[C@H]1Cn2c(nnc2-c2cc[nH]n2)C(=O)N1Cc1cccc(C(F)(F)F)c1Cl [Example 28, (6S)-7-[2-Chloro-3-(trifluoromethyl)benzyl]-6-methyl-3-(1H-pyrazol-3-yl)-6,7-dihydro[1,2,4]triazolo[4,3-a]pyrazin-8(5H)-one] |  |  | -11.7 |
| C[C@H]1Cn2c(-c3cccnn3)nnc2-c2nnc(-c3cccc(C(F)(F)F)c3Cl)n21 [Example 108, (5S)-3-[2-Chloro-3-(trifluoromethyl)phenyl]-5-methyl-8-pyridazin-3-yl-5,6-dihydrobis[1,2,4]triazolo[4,3-a:3′,4′-c]pyrazine] |  |  | -0.5 |
| O=C1c2nnc(-c3ccc(F)cc3)n2CCN1Cc1cccc(C(F)(F)F)c1Cl [Example 1, 7-[2-Chloro-3-(trifluoromethyl)benzyl]-3-(4-fluorophenyl)-6,7-dihydro[1,2,4]triazolo[4,3-a]pyrazin-8(5H)-one] |  |  | 25.4 |
| C[C@H]1Cn2c(nnc2-c2cnccn2)C(=O)N1[C@@H](C)c1ccccc1 (relative stereo) [Example 95, (6S)-6-Methyl-7-[(1S*)-1-phenylethyl]-3-pyrazin-2-yl-6,7-dihydro[1,2,4]triazolo[4,3-a]pyrazin-8(5H)-one] |  |  | 3.1 |
| C[C@H]1Cn2c(nnc2C2CCCNC2)C(=O)N1Cc1cccc(C(F)(F)F)c1Cl (stereo partly drawn) [Example 60, (6S)-7-[2-Chloro-3-(trifluoromethyl)benzyl]-6-methyl-3-piperidin-3-yl-6,7-dihydro[1,2,4]triazolo[4,3-a]pyrazin-8(5H)-one] |  |  | 17.1 |

The next lines start with the values.

| PBMC 1 μM (% control) (P2X7 [1]; 1 μM compound) | Ki (P2X7 [2]) [nM] | remaining activity at 10 µM (P2X7 [1]) [%] | SMILES |
| --- | --- | --- | --- |
|  |  | -0.4 | O=C1c2nnc(-c3ncccn3)n2CC(C2CC2)N1Cc1cccc(C(F)(F)F)c1Cl (racemic) [Example 64, (±)-7-[2-Chloro-3-(trifluoromethyl)benzyl]-6-cyclopropyl-3-pyrimidin-2-yl-6,7-dihydro[1,2,4]triazolo[4,3-a]pyrazin-8(5H)-one] |
|  |  | -3.1 | O=C1c2nnc(-c3ccccn3)n2CCN1Cc1cccc(C(F)(F)F)c1Cl [Example 9, 7-[2-Chloro-3-(trifluoromethyl)benzyl]-3-pyridin-2-yl-6,7-dihydro[1,2,4]triazolo[4,3-a]pyrazin-8(5H)-one] |
|  |  | 37.4 | C[C@H]1Cn2c(nnc2-c2ncc(Br)cn2)C(=O)N1Cc1cccc(C(F)(F)F)c1Cl [Example 42, (6S)-3-(5-Bromopyrimidin-2-yl)-7-[2-chloro-3-(trifluoromethyl)benzyl]-6-methyl-6,7-dihydro[1,2,4]triazolo[4,3-a]pyrazin-8(5H)-one] |
|  |  | -1 | O=C1c2nnc(-c3cnccn3)n2CC(C2CC2)N1Cc1cccc(C(F)(F)F)c1Cl (racemic) [Example 61, (±)-7-[2-Chloro-3-(trifluoromethyl)benzyl]-6-cyclopropyl-3-pyrazin-2-yl-6,7-dihydro[1,2,4]triazolo[4,3-a]pyrazin-8(5H)-one] |
|  |  | 0 | Cc1ncccc1-c1nnc2n1C[C@H](C)N(Cc1cccc(C(F)(F)F)c1Cl)C2=O [Example 48, (6S)-7-[2-Chloro-3-(trifluoromethyl)benzyl]-6-methyl-3-(2-methylpyridin-3-yl)-6,7-dihydro[1,2,4]triazolo[4,3-a]pyrazin-8(5H)-one] |
|  |  | 20.8 | O=C1c2nnc(-c3ccc(F)cn3)n2CC(C2CC2)N1Cc1cccc(C(F)(F)F)c1Cl (racemic) [Example 69, (±)-7-[2-Chloro-3-(trifluoromethyl)benzyl]-6-cyclopropyl-3-(5-fluoropyridin-2-yl)-6,7-dihydro[1,2,4]triazolo[4,3-a]pyrazin-8(5H)-one] |
|  |  | -7 | C[C@H]1Cn2c(nnc2-c2ccn(C)n2)C(=O)N1Cc1cccc(C(F)(F)F)c1Cl [Example 23, (6S)-7-[2-Chloro-3-(trifluoromethyl)benzyl]-6-methyl-3-(1-methyl-1H-pyrazol-3-yl)-6,7-dihydro[1,2,4]triazolo[4,3-a]pyrazin-8(5H)-one] |
|  |  | 1.9 | CC[C@H]1Cn2c(nnc2-c2ncccn2)C(=O)N1Cc1cccc(C(F)(F)F)c1Cl [Example 72, (6S)-7-[2-Chloro-3-(trifluoromethyl)benzyl]-6-ethyl-3-pyrimidin-2-yl-6,7-dihydro[1,2,4]triazolo[4,3-a]pyrazin-8(5H)-one] |
|  |  | 8.7 | C[C@H]1Cn2c(nnc2C2CC2)C(=O)N1Cc1cccc(C(F)(F)F)c1Cl [Example 50, (6S)-7-[2-Chloro-3-(trifluoromethyl)benzyl]-3-cyclopropyl-6-methyl-6,7-dihydro[1,2,4]triazolo[4,3-a]pyrazin-8(5H)-one] |
|  |  | -3.4 | C[C@H]1Cn2c(nnc2-c2cccnc2)C(=O)N1Cc1cccc(C(F)(F)F)c1Cl [Example 29, (6S)-7-[2-Chloro-3-(trifluoromethyl)benzyl]-6-methyl-3-pyridin-3-yl-6,7-dihydro[1,2,4]triazolo[4,3-a]pyrazin-8(5H)-one] |
